Test results as given in ChEMBL document CHEMBL4190243, “Natural alkaloids as P-gp inhibitors for multidrug resistance reversal in cancer” (Eur J Med Chem, 2017).
Residues, ends and D or L forms follow the SMILES beside them.

Tests used:
K562/A02 = experiment: Inhibition of P-gp in human K562/A02 cells assessed as potentiation of doxorubicin-induced cytotoxicity by measuring fold reduction in doxorubicin IC50; format: cell-based
Homo sapiens [1] = species: Homo sapiens; experiment: Inhibition of P-gp in human Bel7402/5-FU cells assessed as increase in intracellular accumulation of Rh123 at 0.8 mg/ml preincubated for 48 hrs followed by Rh123 addition measured after 2 hrs by FACS analysis relative to control; format: cell-based
Homo sapiens [2] = species: Homo sapiens; experiment: Inhibition of P-gp in human Bel7402/5-FU cells assessed as increase in intracellular accumulation of doxorubicin at 0.4 mg/ml preincubated for 48 hrs followed by doxorubicin addition measured after 2 hrs by FACS analysis relative to control; format: cell-based
Homo sapiens [3] = species: Homo sapiens; experiment: Inhibition of P-gp in human KBV1 cells assessed as potentiation of doxorubicin-induced cytotoxicity by measuring fold reduction in doxorubicin IC50 at 5 uM; format: cell-based
Homo sapiens [4] = species: Homo sapiens; experiment: Inhibition of P-gp in human KBV1 cells assessed as potentiation of vinblastine-induced cytotoxicity by measuring fold reduction in vinblastine IC50 at 5 uM; format: cell-based
Homo sapiens [5] = species: Homo sapiens; experiment: Inhibition of P-gp in human KBV1 cells assessed as potentiation of paclitaxel-induced cytotoxicity by measuring fold reduction in paclitaxel IC50 at 5 uM; format: cell-based
Homo sapiens [6] = species: Homo sapiens; experiment: Inhibition of MRP in human lung cancer cells assessed as potentiation of doxorubicin-induced cytotoxicity by measuring fold reduction in doxorubicin IC50; format: cell-based
Homo sapiens [7] = species: Homo sapiens; experiment: Inhibition of P-gp in human lung cancer cells assessed as potentiation of doxorubicin-induced cytotoxicity by measuring fold reduction in doxorubicin IC50; format: cell-based
Homo sapiens [8] = species: Homo sapiens; experiment: Inhibition of MRP in P-gp null human lung cancer cells assessed as potentiation of doxorubicin-induced cytotoxicity by measuring fold reduction in doxorubicin IC50
Homo sapiens [9] = species: Homo sapiens; experiment: Inhibition of P-gp in human CEM/DOX5000 cells assessed as potentiation of doxorubicin-induced cytotoxicity by measuring fold reduction in doxorubicin IC50; format: cell-based
Homo sapiens [10] = species: Homo sapiens; experiment: Inhibition of P-gp in human Caco2 cells assessed as potentiation of doxorubicin-induced cytotoxicity by measuring fold reduction in doxorubicin IC50; format: cell-based
Homo sapiens [11] = species: Homo sapiens; experiment: Inhibition of P-gp in human MCF7/DOX cells assessed as potentiation of doxorubicin-induced cytotoxicity by measuring doxorubicin ED50; format: cell-based
Homo sapiens [12] = species: Homo sapiens; experiment: Inhibition of P-gp in human SW620/AD300 cells assessed as potentiation of doxorubicin-induced cytotoxicity by measuring fold reduction in doxorubicin IC50; format: cell-based
Homo sapiens [13] = species: Homo sapiens; experiment: Inhibition of P-gp in human SW620/AD300 cells assessed as potentiation of taxol-induced cytotoxicity by measuring fold reduction in taxol IC50; format: cell-based
Homo sapiens [14] = species: Homo sapiens; experiment: Inhibition of P-gp in human K562/DOX cells assessed as potentiation of doxorubicin-induced cytotoxicity by measuring fold reduction in doxorubicin IC50 at 5 uM; format: cell-based
Homo sapiens [15] = species: Homo sapiens; experiment: Inhibition of P-gp in human A549/DDP cells assessed as potentiation of doxorubicin-induced cytotoxicity by measuring fold reduction in doxorubicin IC50 at 5 uM; format: cell-based
Homo sapiens [16] = species: Homo sapiens; experiment: Inhibition of P-gp in human A549/DDP cells assessed as potentiation of […]-induced cytotoxicity by measuring fold reduction in doxorubicin IC50 at 5 uM; format: cell-based
NCI-H460 = experiment: Inhibition of P-gp in human NCI-H460 resistant cells assessed as potentiation of doxorubicin-induced cytotoxicity by measuring fold reduction in doxorubicin IC50; format: cell-based
Homo sapiens [17] = species: Homo sapiens; experiment: Inhibition of P-gp in human KBV1 cells assessed as potentiation of vinblastine-induced cytotoxicity by measuring fold reduction in vinblastine IC50 at 50 uM; format: cell-based
Homo sapiens [18] = species: Homo sapiens; experiment: Inhibition of P-gp in human A549/PA cells assessed as synergistic cytotoxicity with paclitaxel after 48 hrs by SRB assay; format: cell-based
Homo sapiens [19] = species: Homo sapiens; experiment: Inhibition of P-gp in human CCRF-CEM/VLB100 cells assessed as potentiation of vincristine-induced cytotoxicity by measuring fold reduction in vincristine IC50
Homo sapiens [20] = species: Homo sapiens; experiment: Inhibition of P-gp in human SW620/DOX300 cells assessed as potentiation of doxorubicin-induced cytotoxicity by measuring fold reduction in doxorubicin IC50; format: cell-based

CCCCCCCCC(CC(=O)CCCCCCC(=O)O)n1cnc2c(N)ncnc21 (centres undefined)
fold change (FC) (K562/A02): 1.5 to 2.7

CC(C)[C@H](NC(=O)[C@H](CO)NC(=O)[C@@H](N)Cc1ccc(O)cc1)C(=O)O (H-Tyr-Ser-Val-OH)
fold change (FC) (Homo sapiens [1]): 1 to 2
fold change (FC) (Homo sapiens [2]): 3

CCCC[C@@]12[C@@H]3C[C@H]4[C@H]5[C@H](C)/C(=C6/OC(=O)C(C)=C6OC)O[C@]5(O3)[C@@H]1CCN42
fold change (FC) (Homo sapiens [3]): 4 to 5
fold change (FC) (Homo sapiens [4]): 5
fold change (FC) (Homo sapiens [5]): 7

CCCCCC(CC(C)=O)n1cnc2c(N)ncnc21 (centres undefined)
fold change (FC) (K562/A02): 1.5 to 2.7

C=CC(C)(C)[C@@]12C[C@H]3c4nc5ccccc5c(=O)n4CC(=O)N3[C@@H]1N(C(C)=O)c1ccccc12
fold change (FC) (Homo sapiens [6]): 66
fold change (FC) (Homo sapiens [7]): 200
fold change (FC) (Homo sapiens [8]): 15

CN1[C@@H](CC(=O)c2ccccc2)CCC[C@H]1CC(O)c1ccccc1 (some centres undefined)
fold change (FC) (Homo sapiens [9]): 2.5 to 3
fold change (FC) (Homo sapiens [10]): 3.5

CC(/C=C/C#C/C=C/C=C(\C)C(=O)N[C@@H](C)CO)=C\[C@@H](C)[C@@H](O)/C(C)=C/[C@@H](C)CCc1ccccc1
ED50 (Homo sapiens [11]): 0.2 nM

CN1c2ccccc2[C@@]23C[C@H]4C(=O)N5[C@H]6N(C[C@@]7(C)O[C@@H]7C2)c2ccccc2[C@@]6(C)C[C@H]5C(=O)N4[C@H]13
fold change (FC) (Homo sapiens [12]): 2

C=C/C=C\[C@H](C)[C@H](OC(N)=O)[C@@H](C)[C@H](O)[C@@H](C)C/C(C)=C\[C@H](C)[C@@H](O)[C@@H](C)/C=C\[C@@H](O)C[C@@H]1OC(=O)[C@H](C)[C@@H](O)[C@H]1C
fold change (FC) (Homo sapiens [13]): 4

C=CC(C)(C)[C@]12c3ccccc3N(C(C)=O)[C@H]1N1C(=O)[C@@H](C)n3c(nc4ccccc4c3=O)[C@@H]1C2O (some centres undefined)
fold change (FC) (Homo sapiens [14]): 5
fold change (FC) (Homo sapiens [15]): 8
fold change (FC) (Homo sapiens [16]): 8

C[n+]1cc2c3c(ccc2c2ccc4cc5c(cc4c21)OCO5)OCO3
fold change (FC) (Homo sapiens [10]): 18

H-KILRGVCKKIMRTFLRRISKDILTGKK-OH
fold change (FC) (NCI-H460): 5

COC1=C(C)C(=O)O/C1=C1\O[C@@]23CCCN4CCC[C@@H](O2)[C@H]4[C@H]3[C@@H]1C
fold change (FC) (Homo sapiens [17]): 4

COc1ccc2c3c(c4cc(OC)c(OC)cc4c2c1)C[C@H]1CCCN1C3
CI (Homo sapiens [18]): 0.45

C=CC(C)(C)[C@@]12C[C@H]3c4nc5ccccc5c(=O)n4[C@H](C)C(=O)N3[C@@H]1N(C(C)=O)c1ccccc12
fold change (FC) (Homo sapiens [19]): 700

COC(=O)c1c(-c2ccc(O)cc2)c(-c2ccc(O)cc2)cn1CC(=O)c1ccc(OC)cc1
fold change (FC) (Homo sapiens [20]): 5
